Experimental data from patent US9585892B2, “Solid forms comprising N-(5-tert-butyl-isoxazol-3-yl)-N′-{4-[7-(2-morpholin-4-yl-ethoxy)imidazo[2,1-b][1,3]benzothiazol-2-yl]phenyl}urea, compositions thereof, and uses therewith” (AMBIT BIOSCIENCES CORPORATION, priority 2007, dated 2017).
Counter-ions that a name gives are not always drawn. Like-named read-outs stand apart in the source and are kept apart here.

How the values were obtained:
Assay type in all cases: physicochemical
[1] = Solubility measurements (solvent aliquot addition, visual inspection)
Procedure: A weighed sample was treated with aliquots of the test solvent at room temperature or elevated temperature. Complete dissolution of the test material was determined by visual inspection. Solubility was estimated based on the total solvent used to provide complete dissolution. The actual solubility may be greater than the value calculated because of the use of solvent aliquots that were too large or due to a slow rate of dissolution. […] If complete dissolution was achieved as a result of only one aliquot addition, the solubility is expressed as “greater than.”

[2] = Stress experiments (temperature or relative humidity, XRPD after stress)
Procedure: Stress Experiments. Solids were stressed under different temperature or relative humidity (RH) environments for a measured time period. Specific RH values were achieved by placing the sample inside sealed chambers containing saturated salt solutions. The salt solutions were selected and prepared following an ASTM standard procedure. Samples were analyzed by XRPD immediately after removal from the stress environment.
(§1) X-ray powder diffraction analyses were performed on an Inel XRG-3000 diffractometer, equipped with a curved position-sensitive detector with a […] of 120°. Real time data was collected using Cu Kα radiation starting at approximately 4 ° 2θ at a resolution of 0.03 ° 2θ. The tube voltage and amperage were set to 40 kV and 30 mA, respectively. […] Samples were prepared for analysis by packing them into thin-walled glass capillaries. Each capillary was mounted onto a goniometer head that is motorized to permit spinning of the capillary during data acquisition. Instrument calibration was performed daily using a silicon reference standard.

[3] = Dynamic vapor sorption/desorption (moisture balance); conditions: for post-moisture balance XRPD (resulting material): after sorption/desorption cycle 5-95-5% RH; for weight loss upon initial equilibration: equilibrium at 5% RH; for weight gain on sorption / water corresponding to the weight gain on sorption: from 5 to 95% RH; for weight loss on desorption: from 95 to 5% RH
Procedure: Data were collected on a VTI SGA-100 moisture balance system. For sorption isotherms, a sorption range of about 5 to about 95% relative humidity (RH) and a desorption range of about 95 to about 5% RH in 10% RH increments were used for analysis. The samples were not dried prior to analysis. Equilibrium criteria used for analysis were less than 0.0100% weight change in 5 minutes with a maximum equilibration time of 3 hours if the weight criterion was not met. Data were not corrected for the initial moisture content of the samples.

[4] = Mechanical stress studies (compression, grinding, milling; XRPD after stress)
Procedure: Grinding. […] […] The solids were isolated and analyzed.
as §1

[5] = Oven: 40° C., 4 days, listed as A
[6] = 75% RH, ambient temperature, 2 and 4 days

Structure (SMILES): CC(C)(C)c1cc(NC(=O)Nc2ccc(-c3cn4c(n3)sc3cc(OCCN5CCOCC5)ccc34)cc2)no1 [Form A of the HCl salt of Compound B1, N-(5-tert-butyl-isoxazol-3-yl)-N′-{4-[7-(2-morpholin-4-yl-ethoxy)imidazo[2,1-b][1,3]benzothiazol-2-yl]phenyl}urea]
- solubility ([1]; 1,4-dioxane, organic solvent or mixture, thermodynamic from solid, 1,4-Dioxane, Ambient, read-out: Approximate Solubility): < 2000 µg/mL
- solubility ([1]; 2-butanone, organic solvent or mixture, thermodynamic from solid, 2-Butanone, Ambient, read-out: Approximate Solubility): < 2000 µg/mL
- solubility ([1]; acetone, organic solvent or mixture, thermodynamic from solid, Acetone, Ambient, read-out: Approximate Solubility): < 2000 µg/mL
- solubility ([1]; acetonitrile, organic solvent or mixture, thermodynamic from solid, Acetonitrile (ACN), Ambient, read-out: Approximate Solubility): < 2000 µg/mL
- solubility ([1]; acetonitrile/water (1:1), 60 °C, aqueous with cosolvent or surfactant or cyclodextrin, thermodynamic from solid, ACN/water (1:1), 60° C., read-out: Approximate Solubility): ≥ 110000 µg/mL
- solubility ([1]; dichloromethane, organic solvent or mixture, thermodynamic from solid, Dichloromethane (DCM), Ambient, read-out: Approximate Solubility): < 2000 µg/mL
- solubility ([1]; ethanol, organic solvent or mixture, thermodynamic from solid, Ethanol (EtOH), Ambient, read-out: Approximate Solubility): 1000 µg/mL
- solubility ([1]; ethanol/water (4:1), 60 °C, organic solvent or mixture, thermodynamic from solid, Ethanol/water (4:1), 60° C., read-out: Approximate Solubility): ≥ 39000 µg/mL
- solubility ([1]; ethanol/water (24:1), 60 °C, organic solvent or mixture, thermodynamic from solid, Ethanol/water (24:1), 60° C., read-out: Approximate Solubility): < 2000 µg/mL
- solubility ([1]; ethyl acetate, organic solvent or mixture, thermodynamic from solid, Ethyl Acetate (EtOAc), Ambient, read-out: Approximate Solubility): < 2000 µg/mL
- solubility ([1]; isopropanol, organic solvent or mixture, thermodynamic from solid, Isopropanol (IPA), Ambient, read-out: Approximate Solubility): < 2000 µg/mL
- solubility ([1]; isopropanol/water (24:1), 60 °C, organic solvent or mixture, thermodynamic from solid, Isopropanol/water (24:1), 60° C., read-out: Approximate Solubility): < 2000 µg/mL
- solubility ([1]; methanol, organic solvent or mixture, thermodynamic from solid, Methanol (MeOH), Ambient, read-out: Approximate Solubility): 3000 µg/mL
- solubility ([1]; nitromethane, organic solvent or mixture, thermodynamic from solid, Nitromethane, Ambient, read-out: Approximate Solubility): < 2000 µg/mL
- solubility ([1]; tetrahydrofuran, organic solvent or mixture, thermodynamic from solid, Tetrahydrofuran (THF), Ambient, read-out: Approximate Solubility): < 2000 µg/mL
- solubility ([1]; trifluoroethanol, organic solvent or mixture, thermodynamic from solid, Trifluoroethanol (TFE), Ambient, read-out: Approximate Solubility): > 72000 µg/mL
- solubility ([1]; trifluorotoluene, organic solvent or mixture, thermodynamic from solid, Trifluorotoluene (TFT), Ambient, read-out: Approximate Solubility): < 2000 µg/mL
- solubility ([1]; water, thermodynamic from solid, Water, Ambient, certain samples formed a gel upon addition of water, actual solubility may differ substantially, read-out: Approximate Solubility): 36000 µg/mL
- weight gain ([2]; 75% RH, 1 day): 1 day: 4.2% weight gain
- weight gain ([2]; 75% RH, 2 days): 2 days: 3.8% weight gain
- XRPD Result after stress ([2]; 75% RH, ambient temperature, 4 days): Form D
- XRPD Result after stress ([2]; Oven: 40° C., 4 days): mixture of Form A and Form E
- XRPD Result after stress [2, 5]: A + E
- weight loss [2, 5]: 4 days: 3.0% weight loss
- post-moisture balance XRPD (resulting material) [3]: Form D
- post-moisture balance XRPD (resulting material) ([3]; listed as A): FORM D
- weight loss upon initial equilibration [3]: about 3.9%
- weight loss upon initial equilibration ([3]; listed as A): ~3.9% WEIGHT LOSS UPON EQUILIBRIUM
- weight gain on sorption [3]: about 16.7%
- water corresponding to the weight gain on sorption ([3]; listed as A): CORRESPONDING TO 6.5 MOLES OF WATER.
- weight gain on sorption ([3]; listed as A): ~16.7% WEIGHT GAIN FROM 5 TO 95% RH,
- weight loss on desorption [3]: about 16.7%
- weight loss on desorption ([3]; listed as A): ~16.6% WEIGHT LOSS FROM 95 TO 5% RH.

Structure (SMILES): CC(C)(C)c1cc(NC(=O)Nc2ccc(-c3cn4c(n3)sc3cc(OCCN5CCOCC5)ccc34)cc2)no1 [Form B of the HCl salt of Compound B1, N-(5-tert-butyl-isoxazol-3-yl)-N′-{4-[7-(2-morpholin-4-yl-ethoxy)imidazo[2,1-b][1,3]benzothiazol-2-yl]phenyl}urea]
- APPROXIMATE SOLUBILITY ([1]; 2,2,2-TRIFLUOROETHANOL, 67 ° C.): 53 mg/mL
- APPROXIMATE SOLUBILITY ([1]; 2,2,2-TRIFLUOROETHANOL, AMBIENT): 52 mg/mL
- APPROXIMATE SOLUBILITY ([1]; 2-BUTANONE (MEK), 62 ° C.): <1 mg/mL
- APPROXIMATE SOLUBILITY ([1]; 2-BUTANONE (MEK), AMBIENT): <1 mg/mL
- APPROXIMATE SOLUBILITY ([1]; ACETONE, 54 ° C.): <1 mg/mL
- APPROXIMATE SOLUBILITY ([1]; ACETONE, AMBIENT): <1 mg/mL
- APPROXIMATE SOLUBILITY ([1]; ACETONE:WATER 50:50, AMBIENT): 13 mg/mL
- APPROXIMATE SOLUBILITY ([1]; ACETONITRILE, 60 ° C.): <1 mg/mL
- APPROXIMATE SOLUBILITY ([1]; ACETONITRILE, AMBIENT): <1 mg/mL
- APPROXIMATE SOLUBILITY ([1]; ACETONITRILE:WATER 50:50, AMBIENT): 51 mg/mL
- APPROXIMATE SOLUBILITY ([1]; DICHLOROMETHANE, AMBIENT): <1 mg/mL
- APPROXIMATE SOLUBILITY ([1]; DIOXANE:WATER 50:50, 62 ° C.): 23 mg/mL
- APPROXIMATE SOLUBILITY ([1]; ETHANOL, 60 ° C.): <2 mg/mL
- APPROXIMATE SOLUBILITY ([1]; ETHANOL, AMBIENT): <1 mg/mL
- APPROXIMATE SOLUBILITY ([1]; ETHANOL:WATER 50:50, AMBIENT): 13 mg/mL
- APPROXIMATE SOLUBILITY ([1]; ETHYL ACETATE, AMBIENT): <1 mg/mL
- APPROXIMATE SOLUBILITY ([1]; ISOPROPANOL, 63 ° C.): <1 mg/mL
- APPROXIMATE SOLUBILITY ([1]; ISOPROPANOL, AMBIENT): <1 mg/mL
- APPROXIMATE SOLUBILITY ([1]; ISOPROPANOL:WATER 20:80, 62 ° C.): 54 mg/mL
- APPROXIMATE SOLUBILITY ([1]; ISOPROPANOL:WATER 20:80, AMBIENT): 5 mg/mL
- APPROXIMATE SOLUBILITY ([1]; METHANOL, 62 ° C.): 2 mg/mL
- APPROXIMATE SOLUBILITY ([1]; METHANOL, AMBIENT): 1 mg/mL
- APPROXIMATE SOLUBILITY ([1]; NITROMETHANE, 64 ° C.): <1 mg/mL
- APPROXIMATE SOLUBILITY ([1]; NITROMETHANE, AMBIENT): <1 mg/mL
- APPROXIMATE SOLUBILITY ([1]; P-DIOXANE, 63 ° C.): <1 mg/mL
- APPROXIMATE SOLUBILITY ([1]; P-DIOXANE, AMBIENT): <1 mg/mL
- APPROXIMATE SOLUBILITY ([1]; P-DIOXANE:WATER 50:50, AMBIENT): 6 mg/mL
- APPROXIMATE SOLUBILITY ([1]; TETRAHYDROFURAN, 64 ° C.): <1 mg/mL
- APPROXIMATE SOLUBILITY ([1]; TETRAHYDROFURAN, AMBIENT): <1 mg/mL
- APPROXIMATE SOLUBILITY ([1]; TETRAHYDROFURAN:WATER 50:50, AMBIENT): 24 mg/mL
- APPROXIMATE SOLUBILITY ([1]; TRIFLUOROTOLUENE, AMBIENT): <1 mg/mL
- solubility ([1]; water, 68 °C, water, thermodynamic from solid, WATER, 68 ° C., read-out: APPROXIMATE SOLUBILITY): < 3000 µg/mL
- solubility ([1]; water, thermodynamic from solid, WATER, AMBIENT, read-out: APPROXIMATE SOLUBILITY): ≥ 1000 µg/mL
- XRPD Result after stress [2, 6]: Form B
- weight change [2, 6]: no substantial weight change
- weight change ([2]; 75% RH, ambient temperature, 2 and 4 days, listed as B): 2 and 4 days: no weight
- post-moisture balance XRPD (resulting material) [3]: Form B
- post-moisture balance XRPD (resulting material) ([3]; listed as B): FORM B
- weight loss upon initial equilibration [3]: about 0.6%
- water corresponding to the mass gain on sorption ([3]; from 5% to 95% RH): about 1.2 molar equivalents of water
- weight gain on sorption [3]: about 3.6%
- water corresponding to the weight gain on sorption ([3]; listed as B): ~1.2 MOLES OF WATER FROM ~5 TO ~95%
- weight gain on sorption ([3]; listed as B): ~3.6% WEIGHT GAIN, CORRESPONDING TO
- weight loss on desorption [3]: about 3.6%
- weight loss on desorption ([3]; listed as B): RH, ~3.2% WEIGHT LOSS FROM ~95 TO ~5%
- XRPD RESULT after mechanical stress ([4]; GRIND WITH MORTAR AND PESTLE, WATER, 1 MIN): B + SMALL PEAK
- XRPD RESULT after mechanical stress ([4]; MILLING, 2,2,2-TRIFLUOROETHANOL, 10 MIN): B + LARGE PEAK
